SMILES strings stand for the structures.

In the first assay the target is T1, Dihydrofolate reductase (Bos taurus) (UniProt P00376).
T1 sequence (whole entry): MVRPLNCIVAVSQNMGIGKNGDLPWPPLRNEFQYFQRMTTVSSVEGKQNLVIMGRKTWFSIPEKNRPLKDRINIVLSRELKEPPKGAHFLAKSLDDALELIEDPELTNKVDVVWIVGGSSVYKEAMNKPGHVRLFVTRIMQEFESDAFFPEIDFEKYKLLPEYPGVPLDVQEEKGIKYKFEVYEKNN
Description: Inhibition of dihydrofolate reductase from bovine liver
`CCCCOCc1cccc(Cc2cnc(N)nc2N)c1` had a Log 1/Ki app of 5.86.

Compound `Nc1ncc(Cc2cccc(O)c2)c(N)n1` registered a Log 1/Ki app of 4.88.

Compound `COc1ccc(Cc2cnc(N)nc2N)cc1OC` displayed a Log 1/Ki app of 5.15.

The compound `Nc1ncc(Cc2cccc(CO)c2)c(N)n1` registered a Log 1/Ki app of 5.2.

As to `COCc1cccc(Cc2cnc(N)nc2N)c1`, the Log 1/Ki app is 5.49.

In turn, `Nc1ncc(Cc2cccc(I)c2)c(N)n1` returned a Log 1/Ki app of 6.15.

Take `Nc1ncc(Cc2cccc(C(F)(F)F)c2)c(N)n1`: the Log 1/Ki app amounted to 5.53.

`CCCCOc1ccc(Cc2cnc(N)nc2N)cc1` came in with a Log 1/Ki app of 5.74.

In turn, `CS(=O)(=O)Oc1cccc(Cc2cnc(N)nc2N)c1` came in with a Log 1/Ki app of 5.58.

`COCCOc1c(OC)cc(Cc2cnc(N)nc2N)cc1OC` showed a Log 1/Ki app of 4.88.

In turn, `CC(=O)Nc1ccc(Cc2cnc(N)nc2N)cc1[N+](=O)[O-]` gave a Log 1/Ki app of 5.16.

In turn, `Nc1ncc(Cc2ccc(OC(F)(F)F)cc2)c(N)n1` yielded a Log 1/Ki app of 5.42.

For the compound `Cc1ccc(Cc2cnc(N)nc2N)cc1`, the Log 1/Ki app was determined as 4.8.

The compound `Nc1ccc(Cc2cnc(N)nc2N)cc1` returned a Log 1/Ki app of 4.57.

The target in a further assay is T2, Dihydrofolate reductase (Escherichia coli) (UniProt P0ABQ4).
T2 sequence (whole entry): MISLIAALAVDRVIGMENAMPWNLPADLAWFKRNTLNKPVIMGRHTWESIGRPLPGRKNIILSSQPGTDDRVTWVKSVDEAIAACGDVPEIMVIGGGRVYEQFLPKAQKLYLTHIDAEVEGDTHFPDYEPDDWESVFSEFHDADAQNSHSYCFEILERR
Description: Compound is evaluated for the inhibition of dihydrofolate reductase from Escherichia coli
As for `CS(=O)(=O)Oc1cccc(Cc2cnc(N)nc2N)c1`, the Log 1/Ki app was found to be 6.92.

`CC(=O)Nc1ccc(Cc2cnc(N)nc2N)cc1[N+](=O)[O-]` gave a Log 1/Ki app of 6.97.

Turning to `Nc1ncc(Cc2ccc(OC(F)(F)F)cc2)c(N)n1`, the Log 1/Ki app is 6.57.

These data come from ChEMBL document CHEMBL1121828, “Quantitative structure-selectivity relationships. Comparison of the inhibition of Escherichia coli and bovine liver dihydrofolate reductase by 5-(substituted-benzyl)-2,4-diaminopyrimidines” (J Med Chem, 1981).
